Results reported in publication PMC12816581 (Nature Communications, 2025).

Assays:
PRMT5 = PRMT5 (Homo sapiens, UniProt O14744); assay: E-ASMS affinity selection; format: binding
DCAF1 = DCAF1 (Homo sapiens, UniProt Q9Y4B6); assay: E-ASMS affinity selection; format: binding; conditions: DCAF1 beads, negative control protein
USP21 = biological target: T1, USP21 (Homo sapiens, UniProt Q9UK80); assay: E-ASMS affinity selection; format: binding; conditions: USP21 beads, negative control protein
T1 sequence (Q9UK80 1-565): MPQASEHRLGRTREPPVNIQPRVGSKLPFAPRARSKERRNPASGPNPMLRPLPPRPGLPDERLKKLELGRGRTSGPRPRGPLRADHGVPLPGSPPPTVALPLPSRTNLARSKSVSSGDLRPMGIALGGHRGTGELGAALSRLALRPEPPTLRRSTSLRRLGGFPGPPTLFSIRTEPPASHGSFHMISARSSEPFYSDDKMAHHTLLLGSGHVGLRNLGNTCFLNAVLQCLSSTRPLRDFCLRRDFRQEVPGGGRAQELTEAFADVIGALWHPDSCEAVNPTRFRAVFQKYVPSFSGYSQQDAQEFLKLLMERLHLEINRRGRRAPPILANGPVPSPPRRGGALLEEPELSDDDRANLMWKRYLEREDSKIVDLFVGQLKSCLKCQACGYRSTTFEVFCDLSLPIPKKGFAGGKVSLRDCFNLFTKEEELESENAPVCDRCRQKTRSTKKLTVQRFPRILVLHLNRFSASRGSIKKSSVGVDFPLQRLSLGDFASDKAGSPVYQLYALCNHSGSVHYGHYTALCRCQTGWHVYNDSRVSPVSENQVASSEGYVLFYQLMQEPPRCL

WDR91 = biological target: T2, WDR91 (Homo sapiens, UniProt A4D1P6); format: binding
T2 sequence (A4D1P6 1-747): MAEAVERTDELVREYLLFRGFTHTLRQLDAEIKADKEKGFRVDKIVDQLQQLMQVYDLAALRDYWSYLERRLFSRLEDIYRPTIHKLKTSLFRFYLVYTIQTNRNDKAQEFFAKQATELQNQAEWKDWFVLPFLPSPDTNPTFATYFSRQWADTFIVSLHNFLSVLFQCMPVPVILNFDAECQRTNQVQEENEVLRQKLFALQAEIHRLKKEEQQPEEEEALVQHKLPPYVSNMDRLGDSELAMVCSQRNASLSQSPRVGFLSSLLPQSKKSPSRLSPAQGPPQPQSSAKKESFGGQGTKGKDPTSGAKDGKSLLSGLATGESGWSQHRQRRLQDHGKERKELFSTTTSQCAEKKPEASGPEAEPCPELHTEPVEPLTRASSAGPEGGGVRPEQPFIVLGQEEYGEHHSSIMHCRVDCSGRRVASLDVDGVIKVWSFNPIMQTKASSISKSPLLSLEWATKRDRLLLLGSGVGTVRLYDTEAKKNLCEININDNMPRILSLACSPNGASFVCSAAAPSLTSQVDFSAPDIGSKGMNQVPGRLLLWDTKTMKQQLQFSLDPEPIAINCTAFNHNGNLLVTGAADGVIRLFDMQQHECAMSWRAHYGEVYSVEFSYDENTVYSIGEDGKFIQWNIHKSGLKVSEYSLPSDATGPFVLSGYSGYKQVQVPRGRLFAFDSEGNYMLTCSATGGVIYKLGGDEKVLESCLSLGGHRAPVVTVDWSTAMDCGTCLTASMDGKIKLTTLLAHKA

[1] = Chiral stability assessment via hydrogen-deuterium; format: physicochemical; conditions: binding buffer with D2O, 4 °C, 8 h; indicates potential spontaneous racemization
WDR55 [2] = biological target: T3, WDR55 (Homo sapiens, UniProt Q9H6Y2); format: binding
T3 sequence (Q9H6Y2 1-383): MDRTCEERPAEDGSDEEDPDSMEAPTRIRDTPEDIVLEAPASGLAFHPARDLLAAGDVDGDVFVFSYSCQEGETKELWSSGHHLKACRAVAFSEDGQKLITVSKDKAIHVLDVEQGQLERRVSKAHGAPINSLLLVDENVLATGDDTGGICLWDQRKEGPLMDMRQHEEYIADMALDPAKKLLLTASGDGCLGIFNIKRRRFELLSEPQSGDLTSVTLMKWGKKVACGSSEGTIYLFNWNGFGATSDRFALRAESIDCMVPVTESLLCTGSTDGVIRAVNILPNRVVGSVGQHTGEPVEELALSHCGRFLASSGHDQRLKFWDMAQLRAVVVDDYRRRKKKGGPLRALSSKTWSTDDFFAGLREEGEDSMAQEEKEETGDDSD

WDR55 [3] = biological target: T3, WDR55; assay: biochemical; format: binding
DDB1 = DDB1 (Homo sapiens, UniProt Q16531); assay: E-ASMS affinity selection; format: binding
Sequence of DDB1 (Q16531 whole entry): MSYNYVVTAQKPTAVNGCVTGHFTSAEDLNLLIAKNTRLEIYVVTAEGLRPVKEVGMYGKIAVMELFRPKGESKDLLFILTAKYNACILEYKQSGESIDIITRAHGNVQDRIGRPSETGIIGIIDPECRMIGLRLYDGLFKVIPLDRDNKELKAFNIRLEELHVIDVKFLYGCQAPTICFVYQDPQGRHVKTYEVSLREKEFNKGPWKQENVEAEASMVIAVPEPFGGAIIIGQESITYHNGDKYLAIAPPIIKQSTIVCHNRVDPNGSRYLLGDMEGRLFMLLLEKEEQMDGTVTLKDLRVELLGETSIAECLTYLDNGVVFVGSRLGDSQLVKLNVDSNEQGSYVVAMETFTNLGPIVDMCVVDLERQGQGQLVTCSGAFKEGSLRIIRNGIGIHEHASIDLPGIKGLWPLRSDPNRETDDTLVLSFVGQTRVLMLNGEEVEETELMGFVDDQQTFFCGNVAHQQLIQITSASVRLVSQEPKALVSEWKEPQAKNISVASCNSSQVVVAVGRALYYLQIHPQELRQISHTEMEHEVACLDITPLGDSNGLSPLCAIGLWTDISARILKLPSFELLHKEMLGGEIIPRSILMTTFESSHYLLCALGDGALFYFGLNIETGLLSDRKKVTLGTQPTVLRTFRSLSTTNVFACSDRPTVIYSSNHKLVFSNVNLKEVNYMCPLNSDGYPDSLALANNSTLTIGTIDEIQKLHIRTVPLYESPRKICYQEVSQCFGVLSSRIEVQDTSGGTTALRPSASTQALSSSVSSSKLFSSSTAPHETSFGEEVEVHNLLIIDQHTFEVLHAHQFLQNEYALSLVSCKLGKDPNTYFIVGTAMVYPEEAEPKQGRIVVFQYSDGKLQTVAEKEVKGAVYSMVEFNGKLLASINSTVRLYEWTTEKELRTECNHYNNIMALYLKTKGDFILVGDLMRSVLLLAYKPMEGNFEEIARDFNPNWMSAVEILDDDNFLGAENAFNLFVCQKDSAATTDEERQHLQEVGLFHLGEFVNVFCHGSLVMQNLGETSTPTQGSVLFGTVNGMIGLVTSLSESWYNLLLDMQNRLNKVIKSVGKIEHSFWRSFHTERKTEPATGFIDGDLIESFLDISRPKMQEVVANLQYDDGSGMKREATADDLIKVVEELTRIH

Sequence of PRMT5 (O14744 whole entry): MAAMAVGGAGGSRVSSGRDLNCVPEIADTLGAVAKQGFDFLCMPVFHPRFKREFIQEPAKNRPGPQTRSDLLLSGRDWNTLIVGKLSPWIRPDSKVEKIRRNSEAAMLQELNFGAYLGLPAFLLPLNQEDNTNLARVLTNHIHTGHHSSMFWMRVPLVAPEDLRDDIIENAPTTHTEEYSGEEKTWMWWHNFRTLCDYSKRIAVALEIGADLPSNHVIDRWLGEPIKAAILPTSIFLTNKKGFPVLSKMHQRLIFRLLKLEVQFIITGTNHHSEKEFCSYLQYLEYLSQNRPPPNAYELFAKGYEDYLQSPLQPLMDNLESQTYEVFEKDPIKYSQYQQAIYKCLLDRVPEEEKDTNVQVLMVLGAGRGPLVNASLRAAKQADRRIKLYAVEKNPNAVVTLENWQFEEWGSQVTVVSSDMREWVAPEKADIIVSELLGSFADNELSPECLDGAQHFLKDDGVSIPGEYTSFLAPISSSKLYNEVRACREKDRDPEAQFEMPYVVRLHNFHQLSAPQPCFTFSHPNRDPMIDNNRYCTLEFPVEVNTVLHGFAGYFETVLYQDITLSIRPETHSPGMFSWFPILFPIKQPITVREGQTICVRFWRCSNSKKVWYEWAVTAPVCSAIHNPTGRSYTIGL
Sequence of PRMT5 (Q9BQA1 whole entry partner): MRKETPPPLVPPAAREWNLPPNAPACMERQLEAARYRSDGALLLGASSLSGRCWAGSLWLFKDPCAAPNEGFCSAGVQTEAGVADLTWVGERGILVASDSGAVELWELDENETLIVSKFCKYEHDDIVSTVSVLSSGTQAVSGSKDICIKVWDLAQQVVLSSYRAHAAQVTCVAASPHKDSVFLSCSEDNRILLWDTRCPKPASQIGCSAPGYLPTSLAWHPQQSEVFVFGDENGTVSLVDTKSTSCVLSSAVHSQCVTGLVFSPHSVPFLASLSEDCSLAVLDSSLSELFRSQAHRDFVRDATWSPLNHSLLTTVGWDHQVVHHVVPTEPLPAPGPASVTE
Sequence of DCAF1 (Q9Y4B6 whole entry): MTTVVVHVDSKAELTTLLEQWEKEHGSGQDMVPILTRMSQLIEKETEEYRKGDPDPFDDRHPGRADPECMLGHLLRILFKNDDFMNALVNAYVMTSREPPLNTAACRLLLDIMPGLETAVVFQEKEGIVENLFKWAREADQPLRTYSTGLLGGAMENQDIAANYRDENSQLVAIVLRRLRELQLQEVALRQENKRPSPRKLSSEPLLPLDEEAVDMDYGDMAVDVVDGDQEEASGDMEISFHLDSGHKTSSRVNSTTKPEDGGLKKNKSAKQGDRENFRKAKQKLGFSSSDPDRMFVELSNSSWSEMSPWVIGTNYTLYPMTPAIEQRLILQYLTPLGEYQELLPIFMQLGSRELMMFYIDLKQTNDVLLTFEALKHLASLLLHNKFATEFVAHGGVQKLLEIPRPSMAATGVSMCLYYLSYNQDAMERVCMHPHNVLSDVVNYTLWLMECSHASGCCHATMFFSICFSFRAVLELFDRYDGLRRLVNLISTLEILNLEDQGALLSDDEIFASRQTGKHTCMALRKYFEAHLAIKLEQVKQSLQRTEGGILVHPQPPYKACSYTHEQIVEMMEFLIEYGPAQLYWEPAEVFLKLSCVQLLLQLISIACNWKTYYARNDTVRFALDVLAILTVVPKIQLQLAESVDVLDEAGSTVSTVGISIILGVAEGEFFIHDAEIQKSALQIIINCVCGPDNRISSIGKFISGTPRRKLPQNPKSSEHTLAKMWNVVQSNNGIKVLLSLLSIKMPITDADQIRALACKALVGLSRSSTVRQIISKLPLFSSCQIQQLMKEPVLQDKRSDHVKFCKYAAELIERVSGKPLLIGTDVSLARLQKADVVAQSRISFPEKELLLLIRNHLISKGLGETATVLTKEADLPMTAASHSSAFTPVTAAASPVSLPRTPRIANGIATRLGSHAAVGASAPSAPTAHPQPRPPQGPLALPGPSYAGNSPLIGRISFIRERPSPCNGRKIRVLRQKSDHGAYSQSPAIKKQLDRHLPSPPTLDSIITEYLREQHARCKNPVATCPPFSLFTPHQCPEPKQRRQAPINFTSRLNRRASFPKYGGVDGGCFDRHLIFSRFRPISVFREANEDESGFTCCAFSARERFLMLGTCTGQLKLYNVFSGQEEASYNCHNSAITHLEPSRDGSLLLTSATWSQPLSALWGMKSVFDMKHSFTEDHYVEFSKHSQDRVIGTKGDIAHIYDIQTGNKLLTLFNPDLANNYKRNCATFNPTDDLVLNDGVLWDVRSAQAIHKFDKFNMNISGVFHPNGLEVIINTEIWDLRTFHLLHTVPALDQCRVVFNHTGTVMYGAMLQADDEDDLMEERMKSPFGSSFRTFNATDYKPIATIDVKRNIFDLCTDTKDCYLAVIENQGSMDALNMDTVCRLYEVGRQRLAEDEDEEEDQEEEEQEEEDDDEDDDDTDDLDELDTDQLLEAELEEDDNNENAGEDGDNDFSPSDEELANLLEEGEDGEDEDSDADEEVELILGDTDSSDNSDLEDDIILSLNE

## Nc1ncnc2c1ccn2[C@@H]1O[C@H]([C@H](O)c2ccccc2)[C@@H](O)[C@H]1O [(S)-LLY283]
PRMT5; PRMT5 eluate
  Enantioselective enrichment (chiral chromatography of eluate): Enantioselective enrichment

## Nc1cccc2c1CN(C1CCC(=O)NC1=O)C2=O (stereo not drawn) [Lenalidomide, lenalidomide]
DCAF1
  Enrichment in methanol eluate (E-ASMS): no significant enrichment
PRMT5; PRMT5 beads, negative control protein
  Enrichment in methanol eluate (E-ASMS): no significant enrichment
USP21
  Enrichment in methanol eluate (E-ASMS): no significant enrichment

## CN1C(=O)C(c2c(-c3ccc(Cl)cc3)[nH]c3c2c(=O)[nH]c(=O)n3C)c2ccccc21 (stereo not drawn) [XS381295]
WDR91; WDR91-bead eluate
  Enantioselective binding (chiral chromatography of eluate): did not show enantioselectivity
WDR91; WDR91 beads vs other proteins screened in parallel
  Enrichment in methanol eluate (E-ASMS): enriched
[1]
  Deuterium incorporation (H/D exchange): showed deuterium incorporation

## CC1Cc2cc(-c3ccnc4ncnn34)ccc2O1 (stereo not drawn) [XS381774]
WDR55 [2]; WDR55-bead eluate
  Enantioselective binding (chiral chromatography of eluate): displayed enantioselectivity
WDR55 [2]; WDR55 beads
  Enrichment in methanol eluate (E-ASMS): enriched
WDR55 [3]
  Kd: 11 µM

## CCOc1cccc(C2CC(=O)Nc3c2c(C)nn3-c2ccc3nncn3n2)c1 (stereo not drawn) [XS381952]
DDB1; DDB1-bead eluate vs ratio of enantiomers in starting library
  Enantioselective enrichment (chiral chromatography of eluate): one of the two enantiomers was clearly enriched
DDB1; DDB1 beads vs other proteins screened in parallel
  Enrichment in methanol eluate (E-ASMS): specifically enriched
